Results published in patent US20260124281A1, “FORMULATIONS COMPRISING ACID-NEUTRALIZING POLYMER FOR ORAL ADMINISTRATION OF PARATHYROID HORMONE” (Entera Bio Ltd., priority 2022, published 2026).

What was measured:
[1] = test system: pepsin; test: Proteolysis of hPTH(1-34) by pepsin at various pH values; format: in vitro ADME; conditions: 13.5 μg/ml hPTH(1-34), 150 μg/ml pepsin, 37° C., media pH 2-7
Description: The effect of pH on peptide proteolysis by pepsin was determined by incubating 13.5 μg/ml human parathyroid hormone (1-34) (hPTH(1-34)) with 150 μg/ml pepsin, at various pH values, and determining the percentage of hPTH(1-34) which remained. The amount of hPTH(1-34) remaining upon addition to 150 μg/ml pepsin at 37° C., was determined in media with different pH values, followed by immediate (10 second) vortex and centrifugation for 3 minutes at 4° C., 4000 RCF. The following media were used: simulated gastric fluid (pH 2), prepared from 0.01 M HCl and NaCl; phthalate buffer (pH 4 or 5); and phosphate buffer (pH 6 or 7).

[2] = pH upon addition of test substance to 0.1 M HCl solution (pH 1.2), pH meter; format: physicochemical
Description: The solution pH was determined using an MP-103 pH-meter (MRC, Israel) equipped with ELC-10-00 electrode (MRC, Israel) or with a thin electrode HI1083 (HANNA instruments Inc.), shortly after dissolution and up to 26 hours later in order to ensure that the pH remained stable. The highest pH value obtained during the experimental time period was recorded in order to compare the acid-neutralizing capacity of each substance.
SNAC and the basic polymers sodium alginate, sodium carboxymethylcellulose in non-crosslinked (Na-CMC) and crosslinked (croscarmellose sodium, CCS) forms, and sodium starch glycolate (SSG) were dissolved in various volumes of 0.1 M HCl solution (pH 1.2) at concentrations of 1, 2, 4, 10, 20, 50, 100 and 150 mg/ml, and the solution pH was determined using an MP-103 pH-meter (MRC, Israel) equipped with ELC-10-00 electrode (MRC, Israel), as described in the Materials and Methods section hereinabove.
In order to obtain a beneficial rise in pH with a reduced loss of the active form of the absorption enhancer, the effect of various concentrations of different polymers containing carboxylate groups (sodium alginate, sodium starch glycolate, sodium carboxymethylcellulose, and croscarmellose sodium) on pH upon addition to a 0.1 M HCl solution (pH 1.2) was also evaluated. FIG. 3A presents pH values determined using an MP-103 pH-meter (MRC, Israel) equipped with ELC-10-00 electrode (MRC, Israel) and FIG. 3B presents pH values determined using an MP-103 pH-meter (MRC, Israel) equipped with a thin electrode HI1083 (HANNA instruments Inc.).

Structure (SMILES)	pH at which proteolysis of hPTH(1-34) by pepsin was inhibited [1]	pH 5 minutes after dissolution ([2]; 10 mg/ml SNAC added to HCl solution (pH 1.2))	pH 5 minutes after dissolution ([2]; 20 mg/ml SNAC added to HCl solution (pH 1.2))	pH 5 minutes after dissolution ([2]; 100 mg/ml SNAC added to HCl solution (pH 1.2))	dissolution upon addition to HCl solution ([2]; HCl solution (pH 1.2))
CC[C@H](C)[C@H](NC(=O)[C@H](CCC(=O)O)NC(=O)[C@H](CO)NC(=O)[C@@H](NC(=O)[C@@H](N)CO)C(C)C)C(=O)N[C@@H](CCC(N)=O)C(=O)N[C@@H](CC(C)C)C(=O)N[C@@H](CCSC)C(=O)N[C@@H](Cc1cnc[nH]1)C(=O)N[C@@H](CC(N)=O)C(=O)N[C@@H](CC(C)C)C(=O)NCC(=O)N[C@@H](CCCCN)C(=O)N[C@@H](Cc1cnc[nH]1)C(=O)N[C@@H](CC(C)C)C(=O)N[C@@H](CC(N)=O)C(=O)N[C@@H](CO)C(=O)N[C@@H](CCSC)C(=O)N[C@@H](CCC(=O)O)C(=O)N[C@@H](CCCN=C(N)N)C(=O)N[C@H](C(=O)N[C@@H](CCC(=O)O)C(=O)N[C@@H](Cc1c[nH]c2ccccc12)C(=O)N[C@@H](CC(C)C)C(=O)N[C@@H](CCCN=C(N)N)C(=O)N[C@@H](CCCCN)C(=O)N[C@@H](CCCCN)C(=O)N[C@@H](CC(C)C)C(=O)N[C@@H](CCC(N)=O)C(=O)N[C@@H](CC(=O)O)C(=O)N[C@H](C(=O)N[C@@H](Cc1cnc[nH]1)C(=O)N[C@@H](CC(N)=O)C(=O)N[C@@H](Cc1ccccc1)C(=O)O)C(C)C)C(C)C [hPTH(1-34), teriparatide]	≥ 6	–	–	–	–
O=C(O)CCCCCCCNC(=O)c1ccccc1O [SNAC, sodium 8-N-(2-hydroxybenzoyl)aminocaprylate]	–	about 1.5	6.5	about 7.5	dissolved rapidly
